{"source": "patent US8697837B2", "about": "“Substrate for Rpn 11 enzymatic activity” (Onyx Therapeutics, Inc., priority 2005, dated 2014)", "key": {"Rpn11 (26S proteasome) [1]": {"molecular_target": "T1, Rpn11 (26S proteasome) (Homo sapiens, UniProt O00487)", "T1 construct": "To date, a recombinant form of Rpn11 has not been generated", "assay": "SDS-PAGE assay of Ub4-peptide substrate proteolysis by 26S proteasome", "assay_type": "biochemical", "settings": "for inhibition of proteolysis of the substrate Ub4-peptide(29) and Ub4-peptide-C14(29) by the 26S proteasome: FIG. 1, 60 nM 26S proteasome, 2 h 37 °C, 5 mM ATPγS, 1 mM OPA, 5 μM Ub-aldehyde, SDS-PAGE", "procedure": "Each peptide substrate further comprises an N-terminal ubiquitin moiety that has 4 Ub repeats (Ub4). […] 2 μg of Ub4-peptide(29) or Ub4-peptide-C14(29) were incubated with 60 nM 26S proteasome in buffer B [50 mM Tris pH 8.0; 10 mM MgCl2; 1 mM DTT; 1 mM ATP] and where indicated 5 mM ATPγS, 1 mM O-phenanthroline (OPA) and 5 μM ubiquitin aldehyde (Ub-aldehyde) in a volume of 20 μl for 2 hours at 37° C. Reactions were stopped by adding 7.5 μl loading dye and boiled at 100° C. for 5 minutes. Reactions were then loaded on an SDS-PAGE gel, reaction products were separated by electrophoresis and bands were visualized with brilliant blue.\nEach peptide substrate further comprises an N-terminal ubiquitin moiety that has 4 Ub repeats (Ub4)."}, "[2]": {"molecular_target": "T2, chymotryptic-like activity of the 20S proteasome (Homo sapiens, UniProt P20618+P28074)", "T2 construct": "26S proteasome purified from humans and purchased from BioMol; purchased BioMol", "assay": "Example 2 screen: liberation of AMC from LLVY-AMC", "assay_type": "biochemical", "settings": "substrate LLVY-AMC; method of Example 2", "procedure": "(§1) 4) 26S proteasome purified from humans and purchased from BioMol;\n(§2) 5 μl of compound [30 μM compound in Buffer A+1% DMSO], 5 μl of substrate [30 nM Ub4-pep-C14(29)-Oregon Green and 15 μM LLVY-AMC in Buffer A] and 5 μl enzyme [1.5 nM 26S proteasomes] were mixed in a 384 well plates and incubated at 28° C. for 75 minutes. Reactions were stopped with the addition of […] 20S inhibitor (PR-171) and 4 mM EDTA. Processing of the 20S substrate LLVY-AMC to liberate AMC was determined by measuring the AMC fluorescence [excitation at 340 nm; emission at 465 nm]. Processing of the 19S substrate Ub4-pep-C14(29)-Oregon Green to liberate pep-C14(29)-Oregon Green was determined by measuring the fluorescence polarization of Oregon Green [excitation at 485 nm; emission at 535 nm].\nModulators of the 20S proteasome activity affect liberation of AMC from LLVY-AMC (second non-ubiquitinated substrate) and affect the chymotryptic-like activity of the 20S proteasome."}, "19S proteasome": {"test_system": "19S proteasome", "assay": "Example 2 screen: liberation of pep-C14(29)-Oregon Green from Ub4-pep-C14(29)-Oregon Green (fluorescence polarization)", "assay_type": "biochemical, human", "settings": "method of Example 2", "procedure": "as §1, §2\nModulators of the 19S proteasome activity affect liberation of pep-C14(29)-Oregon Green from Ub4-pep-C14(29)-Oregon Green (first ubiquitinated substrate)."}, "Ub4-pep-C14(29)": {"test_system": "Ub4-pep-C14(29)", "assay": "Intrinsic fluorescence of ubistatin A on incubation with Ub4-pep-C14(29)", "assay_type": "binding", "settings": "2.5 μM ubistatin A with 2.5 μM Ub4-pep-C14(29); excitation 350 nm, emission 450 nm", "from_the_text": "A test agent that binds ubiquitin can affect the binding of ubistatin A (C92) to Ub4-pep-C14(29). This can be determined by measuring the intrinsic fluorescence of ubistatin A (C92) [excitation at 350 nm; emission at 450 nm] with Ub4-pep-C14(29) in the presence or absence of a test agent, which is a competition assay between ubistatin A and the test agent for binding to the ubiquitin."}, "[3]": {"molecular_target": "ubiquitin or polyubiquitin chains (Homo sapiens, UniProt P0CG48)", "settings": "cited from earlier work"}, "Rpn11 (26S proteasome) [4]": {"molecular_target": "T1, Rpn11 (26S proteasome)", "assay": "High throughput fluorescence polarization assay of Ub4-peptide(29)-fluorescein proteolysis by 26S proteasome", "assay_type": "biochemical", "settings": "FIG. 5A/5B; 100 nM substrate, 10 nM 26S proteasome, 28 °C, various inhibitor concentrations", "procedure": "Various concentrations (as indicated) of Ub4-peptide(29) coupled to Fluorescein-5-maleimide was incubated with 10 nM 26S proteasome in 50 mM Tris pH 8.0; 10 mM MgCl2; 1 mM DTT; 1 mM ATP at 28° C., and the liberation of peptide(29)-fluorescein was measured by fluorescence polarization (excitation at 485 nm; emission at 510 nm).\nFIG. 5A illustrates a high throughput (HTP) FP assay that detects O-phenanthroline inhibition of Rpn11 activity. […] 100 nM Ub4-peptide coupled to fluorescein-5-maleimide was incubated with 10 nM 26S proteasome in 50 mM Tris pH 8.0; 10 mM MgCl2; 1 mM DTT; 1 mM ATP at 28° C. and the liberation of peptide was measured by fluorescence polarization (excitation at 485 nm; emission at 510 nm) in the presence of various concentrations of o-phenanthroline (as indicated).\nFIG. 5B illustrates that Rpn11 enzymatic activity is unaffected by the presence of a 20S proteasome inhibitor in the HTP FP assay using a peptide substrate of the application. […] 100 nM Ub4-peptide coupled to fluorescein-5-maleimide was incubated with 10 nM 26S proteasome in 50 mM Tris pH 8.0; 10 mM MgCl2; 1 mM DTT; 1 mM ATP at 28° C. and the liberation of peptide was measured by fluorescence polarization (excitation at 485 nm; emission at 510 nm) in the presence of various concentrations of 20S proteasome inhibitor (as indicated)."}, "Rpn11": {"molecular_target": "Rpn11 (Saccharomyces cerevisiae, UniProt P43588)", "sequence (P43588 whole entry)": "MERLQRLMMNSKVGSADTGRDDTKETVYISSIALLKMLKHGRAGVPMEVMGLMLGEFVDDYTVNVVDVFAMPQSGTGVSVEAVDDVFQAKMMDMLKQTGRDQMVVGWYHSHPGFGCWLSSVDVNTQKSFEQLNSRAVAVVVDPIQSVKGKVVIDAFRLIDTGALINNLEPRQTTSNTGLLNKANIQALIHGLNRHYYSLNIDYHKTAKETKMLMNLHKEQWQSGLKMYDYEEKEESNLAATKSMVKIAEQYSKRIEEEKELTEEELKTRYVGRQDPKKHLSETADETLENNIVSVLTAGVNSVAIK", "settings": "purified 26S proteasome complex; cited from earlier work"}, "[5]": {"settings": "FIG. 2, 60 nM 26S proteasome from source A"}, "[6]": {"settings": "FIG. 2, 60 nM 26S proteasome from source B"}}, "note": "Where no end group is shown, it is not given here. Ub4 = N-terminal tetraubiquitin moiety"}
{"compound": "Nc1ncnc2c1ncn2[C@@H]1O[C@H](COP(=O)(O)OP(=O)(O)OP(O)(O)=S)[C@@H](O)[C@H]1O", "note": "[ATPγS]", "values": [{"measurement": "inhibition of proteolysis of the substrate Ub4-peptide(29) and Ub4-peptide-C14(29) by the 26S proteasome", "setting": "Rpn11 (26S proteasome) [1]", "value": "inhibited"}, {"measurement": "inhibition of proteolysis of the substrate Ub4-peptide-C14(14)", "setting": "Rpn11 (26S proteasome) [1]; [5]", "value": "inhibited"}, {"measurement": "inhibition of proteolysis of the substrate Ub4-peptide-C14(14)", "setting": "Rpn11 (26S proteasome) [1]; [6]", "value": "not"}]}
{"compound": "COc1cccc(OC)c1C(=O)N1CCC(c2nc(-c3ccc(Br)cc3)no2)CC1", "note": "[Compound 1]", "values": [{"measurement": "effect on the chymotryptic-like activity of the 20S proteasome", "setting": "[2]", "value": "affect"}]}
{"compound": "COc1cccc(OC)c1C(=O)N1CCC(c2nc(-c3ccc(C)cc3)no2)CC1", "note": "[Compound 2]", "values": [{"measurement": "effect on the chymotryptic-like activity of the 20S proteasome", "setting": "[2]", "value": "affect"}]}
{"compound": "CC(C)c1cc(OC(=O)c2cc(C(F)(F)F)cc(C(F)(F)F)c2)n(-c2ccc([N+](=O)[O-])cc2)n1", "note": "[Compound 3]", "values": [{"measurement": "effect on the chymotryptic-like activity of the 20S proteasome", "setting": "[2]", "value": "affect"}]}
{"compound": "O=C(c1ccc(CSc2ccc(-c3ccc(-c4ccccc4)cc3)nn2)o1)N1CCCC1", "note": "[Compound 4]", "values": [{"measurement": "processing of the substrate Ub4-pep-C14(29)-Oregon Green by the 19S proteasome", "setting": "19S proteasome", "value": "prevents"}]}
{"compound": "O=C(Nc1ccc(/C=C/c2ccc(NC(=O)c3cc(S(=O)(=O)O)c4cccnc4c3O)cc2S(=O)(=O)O)c(S(=O)(=O)O)c1)c1cc(S(=O)(=O)O)c2cccnc2c1O", "note": "[Ubistatin A]", "values": [{"measurement": "intrinsic fluorescence of ubistatin A (C92)", "setting": "Ub4-pep-C14(29)", "value": "increases several fold"}, {"measurement": "intrinsic fluorescence detected from Compound 92 on binding to a protein substrate", "setting": "[3]", "value": "increases"}]}
{"compound": "c1cnc2c(c1)ccc1cccnc12", "note": "[o-phenanthroline, 1,10-phenanthroline]", "values": [{"measurement": "inhibition of proteolysis of the substrate Ub4-peptide(29) and Ub4-peptide-C14(29) by the 26S proteasome", "setting": "Rpn11 (26S proteasome) [1]", "value": "inhibited"}, {"measurement": "inhibition of proteolysis of the substrate Ub4-peptide-C14(14)", "setting": "Rpn11 (26S proteasome) [1]; [5]", "value": "inhibited"}, {"measurement": "inhibition of proteolysis of the substrate Ub4-peptide-C14(14)", "setting": "Rpn11 (26S proteasome) [1]; [6]", "value": "not"}, {"measurement": "effect on kinetics of Ub4-peptide(29)-fluorescein proteolysis by the 26S proteasome", "setting": "Rpn11 (26S proteasome) [4]", "value": "affects"}]}
{"compound": "Ub4-peptide-C14(14): peptide of SEQ ID NO:15 with S14 changed to C14 and an N-terminal Ub4 moiety; Rpn11 substrate (Ub4-MQIFVKTLRANSSC)", "values": [{"measurement": "effect of changing S14 to C14 on substrate's ability to be recognized and cleaved by Rpn11", "setting": "Rpn11 (26S proteasome) [1]; FIG. 2, SEQ ID NO:15, N-terminal Ub4", "value": "does not alter"}]}
{"compound": "ubiquitin aldehyde", "values": [{"measurement": "inhibition of proteolysis of the substrate Ub4-peptide(29) and Ub4-peptide-C14(29) by the 26S proteasome", "setting": "Rpn11 (26S proteasome) [1]", "value": "not"}, {"measurement": "sensitivity of the deubiquitinating activity associated with Rpn11", "setting": "Rpn11", "value": "insensitivity"}]}
{"compound": "ubiquitin vinylsulphone", "values": [{"measurement": "sensitivity of the deubiquitinating activity associated with Rpn11", "setting": "Rpn11", "value": "insensitivity"}]}
